{
  "source": "patent US20100323028A1",
  "about": "“METHOD AND COMPOSITION FOR TREATING PULMONARY HEMORRHAGE” (JBS UNITED, INC., priority 2007, published 2010)",
  "origin": "cited, not measured here",
  "tested_on": "horses",
  "details": "alone or in combination not able to totally eliminate EIPH",
  "data": [
    {"compound": "NS(=O)(=O)c1cc(C(=O)O)c(NCc2ccco2)cc1Cl", "note": "[furosemide]", "values": [
      {"measurement": "Effect on EIPH", "value": "effective in reducing EIPH"}
    ]}
  ]
}
